Test results from publication PMC3686309 (ACS medicinal chemistry letters, 2013).

How the values were obtained:
WI-38 fibroblast cells = test: Cytotoxicity against WI-38 fibroblast cells; type: cell-based, human
[1] = Cytotoxicity against WI-38 fibroblast cells; type: cell-based, human; details: human, WI-38 fibroblast cells
WT IDH1 = WT IDH1 (Homo sapiens, UniProt O75874); test: WT IDH1 enzyme inhibition; type: biochemical; details: at 100 μM
Sequence of WT IDH1 (O75874 whole entry): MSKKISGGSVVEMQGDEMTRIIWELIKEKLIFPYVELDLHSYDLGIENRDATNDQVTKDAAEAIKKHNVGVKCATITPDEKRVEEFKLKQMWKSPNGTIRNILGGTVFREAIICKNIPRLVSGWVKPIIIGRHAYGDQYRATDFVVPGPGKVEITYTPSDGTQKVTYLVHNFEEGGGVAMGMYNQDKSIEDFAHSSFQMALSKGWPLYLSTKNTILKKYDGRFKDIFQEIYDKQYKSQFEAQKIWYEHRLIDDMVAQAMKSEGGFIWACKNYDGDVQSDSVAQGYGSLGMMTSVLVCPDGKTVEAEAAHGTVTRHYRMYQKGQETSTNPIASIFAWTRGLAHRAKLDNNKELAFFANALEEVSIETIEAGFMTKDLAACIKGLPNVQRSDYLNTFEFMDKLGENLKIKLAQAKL

SMILES: Cc1cc(Cc2ccccc2)n(O)c(=O)c1 [Compound 2]
- cytotoxicity against human cells (in words) (WI-38 fibroblast cells): do not have cytotoxicity
- EC50 [1]: > 50 µM

SMILES: O=c1cccc(Cc2ccccc2)n1O [Compound 4]
- EC50 [1]: > 50 µM

SMILES: CC(C)c1cc(Cc2ccccc2)n(O)c(=O)c1 [Compound 5]
- EC50 [1]: > 50 µM

SMILES: O=c1ccc(Cc2ccccc2)cn1O [Compound 1]
- activity against WT IDH1 (WT IDH1): no activity

SMILES: Cc1cc(Cc2ccc(O)cc2)n(O)c(=O)c1 [Compound 3]
- cytotoxicity against human cells (in words) (WI-38 fibroblast cells): do not have cytotoxicity
- EC50 [1]: > 50 µM
